Results on 15 compounds are retold here after ChEMBL document CHEMBL1201862, “PubChem BioAssay data set” (2004).

SMILES strings stand for the structures. Activity calls are given as the source filed them. A value given as a limit tells only on which side of the number the result lay.

The target in assay [1] is T1, Ubiquitin-conjugating enzyme E2 N (Homo sapiens, UniProt P61088).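 Further: Dose-response confirmation in a TR-FRET assay detecting UBC13-driven polyubiquitin chain formation, inhibition measured.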
T1 sequence (P61088 whole entry): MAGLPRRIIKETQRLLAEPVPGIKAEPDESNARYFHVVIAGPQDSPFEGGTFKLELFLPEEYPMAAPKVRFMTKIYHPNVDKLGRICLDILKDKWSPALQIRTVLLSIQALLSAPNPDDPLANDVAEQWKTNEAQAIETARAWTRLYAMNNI
It counts as functional.

Assay [2] has as its target T2, DNA repair protein RAD52 homolog (Homo sapiens, UniProt P43351).
T2 sequence (P43351 whole entry): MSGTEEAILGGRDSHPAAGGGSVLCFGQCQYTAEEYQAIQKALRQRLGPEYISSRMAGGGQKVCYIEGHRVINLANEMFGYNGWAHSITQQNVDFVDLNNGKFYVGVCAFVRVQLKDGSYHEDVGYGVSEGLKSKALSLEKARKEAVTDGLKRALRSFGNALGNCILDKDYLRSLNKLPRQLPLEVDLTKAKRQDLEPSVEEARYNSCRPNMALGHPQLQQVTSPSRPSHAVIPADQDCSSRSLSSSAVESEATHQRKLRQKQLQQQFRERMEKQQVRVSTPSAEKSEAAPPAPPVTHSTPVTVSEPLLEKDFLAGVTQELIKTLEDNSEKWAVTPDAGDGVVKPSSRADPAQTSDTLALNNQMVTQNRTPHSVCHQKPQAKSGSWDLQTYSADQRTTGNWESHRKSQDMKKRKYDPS
It counts as functional, biochemical.

The target of assay [3] is Heat shock protein HSP 90-alpha (Homo sapiens, UniProt P07900). It counts as functional, organism-based.
Assay [4] is described as follows: luciferase reporter signal suppression in cells – H4 neuroglioma cells, luminescence, dose response (AID 1990). Type of assay: functional, cell-based. On the technique in general: Reporter assays use an easily measured gene product as a stand-in for the process of interest.
Assay [5] is described as follows: Luminescence Cell-Based Dose Response HTS to Identify Inhibitors of 5'UTR Stem-Loop Driven Prion Protein mRNA Translation in H4 Neuroglioblastoma Cells. [Related pubchem assays: 1827 (Project Summary), 1813 (Primary HTS)]. It counts as functional.
The nature of assay [6]: alpha-synuclein stem-loop luciferase translation blockers – H4 neuroglioma cells, luminescence, confirmation (AID 1988). It counts as functional, cell-based.
A short description of assay [7]: microbe, parasite or virus in culture. Type of assay: functional. Conditions: Mycobacterium tuberculosis.
Assay [8] in a line: Luminescence Cell-Based Dose Retest to Confirm Inhibitors of Cancer Stem Cells. [Related pubchem assays (depositor defined):AID2717, AID2721]. Particulars: Homo sapiens. It counts as functional.
Assay [9] can be described thus: reduction of Shn3 3'UTR-driven luciferase in osteoblasts – cell-based, Clone20 osteoblasts, firefly luciferase, cherry-picked, dose response (AID 624132).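 Further: firefly luciferase luminescence from reporter carrying the Shn3 3'UTR in osteoblasts.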 It counts as functional.
Assay [10] is described as follows: non-specific 3'UTR reporter inhibition in Clone20-Shn3RL – cell-based, Renilla luciferase, cherry-picked, counter-screen for Shn3 inhibitor project, dose response (AID 624133). Type of assay: functional. (A counterscreen serves to expose hits that act by an unwanted route or on another target.)
Assay [11] deals with Streptococcus sp. 'group A'. Nature of the assay: Streptococcus pyogenes SK(-)GAS viability under kanamycin – luminescence, BacTiterGlo, confirmation, counter-screen for streptokinase expression inhibitor project, dose response (AID 1900). Type of assay: functional, organism-based.
The target of a further assay is T3, Streptokinase A (Streptococcus pyogenes serotype M1, UniProt P10520).
T3 sequence (P10520 whole entry): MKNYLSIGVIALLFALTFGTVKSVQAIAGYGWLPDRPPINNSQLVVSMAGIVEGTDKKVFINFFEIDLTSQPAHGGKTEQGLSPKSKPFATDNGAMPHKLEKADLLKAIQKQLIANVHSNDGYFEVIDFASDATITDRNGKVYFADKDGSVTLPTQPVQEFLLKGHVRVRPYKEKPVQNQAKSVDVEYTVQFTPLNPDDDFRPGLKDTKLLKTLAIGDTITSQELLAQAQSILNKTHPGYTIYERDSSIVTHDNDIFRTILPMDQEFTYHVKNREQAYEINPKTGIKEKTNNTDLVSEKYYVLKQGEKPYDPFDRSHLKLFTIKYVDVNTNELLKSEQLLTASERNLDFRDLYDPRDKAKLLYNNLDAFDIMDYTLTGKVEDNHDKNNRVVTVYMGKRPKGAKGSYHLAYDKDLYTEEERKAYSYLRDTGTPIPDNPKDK
Nature of the assay: viability-normalized secreted streptokinase activity reduction – plasminogen activation absorbance, OD405, dose response (AID 1914).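 Further: secreted streptokinase activity via plasminogen activation per viability signal from cell pellet.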 It counts as functional, Streptococcus pyogenes M1 GAS.

In a further assay the target is Large T antigen (Simian virus 40, UniProt P03070). Type of assay: functional, Betapolyomavirus macacae.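 Further: Confirmatory-stage PubChem screen for compounds that inhibit SV40 T antigen.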
Sequence of Large T antigen (P03070 whole entry): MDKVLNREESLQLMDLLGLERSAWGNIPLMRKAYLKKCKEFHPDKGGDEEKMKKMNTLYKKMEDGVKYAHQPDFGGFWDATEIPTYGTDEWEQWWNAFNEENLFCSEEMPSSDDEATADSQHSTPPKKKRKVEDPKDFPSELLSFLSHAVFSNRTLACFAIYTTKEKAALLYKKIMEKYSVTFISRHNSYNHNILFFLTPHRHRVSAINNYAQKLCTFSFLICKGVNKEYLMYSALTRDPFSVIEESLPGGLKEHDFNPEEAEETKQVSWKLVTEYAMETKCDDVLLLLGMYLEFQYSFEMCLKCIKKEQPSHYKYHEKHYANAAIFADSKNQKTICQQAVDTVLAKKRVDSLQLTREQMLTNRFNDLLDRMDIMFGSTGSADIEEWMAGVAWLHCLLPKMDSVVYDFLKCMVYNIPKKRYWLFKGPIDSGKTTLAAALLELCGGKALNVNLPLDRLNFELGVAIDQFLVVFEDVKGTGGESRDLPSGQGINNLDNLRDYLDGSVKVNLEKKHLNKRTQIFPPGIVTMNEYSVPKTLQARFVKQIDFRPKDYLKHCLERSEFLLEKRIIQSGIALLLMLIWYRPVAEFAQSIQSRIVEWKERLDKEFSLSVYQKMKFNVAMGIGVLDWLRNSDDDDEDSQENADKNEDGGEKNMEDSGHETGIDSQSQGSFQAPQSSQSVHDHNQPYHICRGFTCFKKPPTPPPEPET
The next assay relates to Streptococcus. The assay can be described thus: GAS UMAA2166 growth inhibition – luminescence, BacTiterGlo, counter-screen for streptokinase expression inhibitor project, dose response (AID 1915).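 Further: potency for reduction of bacterial viability or growth.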 It counts as functional, organism-based.
The test system of a further assay is INS1. Nature of the assay: INS-1E survival protection against cytokine death – cell-based, luminescence, retest, dose response (AID 449756).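 Further: cell death triggered by IL-1 beta plus TNF-alpha plus IFN-gamma mixture; protective hits raise ATP signal compared with cytokine alone wells.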 Type of assay: functional. Particulars: Rattus norvegicus, INS1.
Assay [12] has as its target T4, High affinity choline transporter 1 (Homo sapiens, UniProt Q9GZV3).
T4 sequence (Q9GZV3 whole entry): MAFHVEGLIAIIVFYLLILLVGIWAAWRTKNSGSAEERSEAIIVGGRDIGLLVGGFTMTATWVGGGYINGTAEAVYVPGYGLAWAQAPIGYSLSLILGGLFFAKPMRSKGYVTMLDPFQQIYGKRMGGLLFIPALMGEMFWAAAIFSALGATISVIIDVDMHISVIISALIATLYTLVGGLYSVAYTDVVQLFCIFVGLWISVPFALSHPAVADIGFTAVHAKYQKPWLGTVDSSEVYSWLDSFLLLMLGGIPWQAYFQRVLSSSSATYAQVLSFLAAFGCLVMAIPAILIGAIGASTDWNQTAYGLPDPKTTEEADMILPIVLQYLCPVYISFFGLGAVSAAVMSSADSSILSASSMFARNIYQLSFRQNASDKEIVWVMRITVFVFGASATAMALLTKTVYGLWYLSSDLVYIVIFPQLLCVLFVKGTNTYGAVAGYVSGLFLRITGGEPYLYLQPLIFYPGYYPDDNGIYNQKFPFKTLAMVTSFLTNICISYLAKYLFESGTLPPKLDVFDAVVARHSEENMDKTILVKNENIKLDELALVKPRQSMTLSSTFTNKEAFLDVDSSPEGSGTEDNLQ
Nature of the assay: human choline transporter blockers, potency – cell-based, 5-point CRC, membrane potential dye, dose response (AID 504840). It counts as functional.

Assay [13] concerns the target T5, Carboxy-terminal domain RNA polymerase II polypeptide A small phosphatase 1 (Homo sapiens, UniProt Q9GZU7).
T5 sequence (Q9GZU7 whole entry): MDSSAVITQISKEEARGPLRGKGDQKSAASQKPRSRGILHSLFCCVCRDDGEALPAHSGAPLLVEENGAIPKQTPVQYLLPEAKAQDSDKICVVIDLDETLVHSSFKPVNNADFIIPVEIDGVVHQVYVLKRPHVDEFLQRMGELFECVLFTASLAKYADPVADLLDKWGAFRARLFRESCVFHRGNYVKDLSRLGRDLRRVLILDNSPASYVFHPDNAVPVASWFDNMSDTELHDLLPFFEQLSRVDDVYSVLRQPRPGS
Nature of the assay: CTDSP1 inhibitors, concentration-response, biochemical, absorbance readout, ultra-high-throughput screen actives (AID 540297). It counts as functional.

A short description of assay [14]: growth inhibition of yeast DHODH-expressing 3D7 parasites – SYBR Green, dry powder samples, dose response (AID 1159570).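 Further: parasite growth measured after 72 hours of compound exposure.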 Type of assay: functional, cell-based.
The nature of assay [15]: toxicity to human HepG2 hepatoma cells – cell-based, plate reader, dry powder samples, cytotoxicity control, dose response (AID 1159569).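 Further: inhibitor potency with signal falling toward the positive control level.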 Type of assay: functional.
Assay [16] can be described thus: P. falciparum Dd2 growth inhibitors, dose response, SYBR Green, cherry-picked samples (AID 1159567). It counts as functional, cell-based.
Assay [17] can be described thus: Dd2 malaria parasite growth inhibition potency – SYBR Green, dry powder samples, dose response (AID 1159566).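 Further: potency for growth inhibition with lower SYBR green DNA signal.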 It counts as functional, cell-based.
A short description of assay [18]: growth inhibition of PfATP4-mutant resistant parasites – NITD609-resistant line, SYBR Green, dry powder, dose response (AID 1159571).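 Further: parasites synchronized at ring stage by sorbitol before testing.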 It counts as functional, cell-based.

One may read the IC50 as the concentration that gives 50% inhibition. One may read the AC50 as the midpoint of the concentration-response curve, whichever way the signal moves. For `Cc1cc(C)c2nc(NCCCNC(=S)NCCCN(C)C)c(C#N)cc2c1`, in assay [1], the IC50 is > 20 µM (inactive). In addition, in [2], the concentration at half-maximal activity (AC50) was 7.63 µM (active).
As for `O=C(CC(n1cncn1)C(Cl)(Cl)Cl)c1ccc([N+](=O)[O-])cc1` (centres undefined), the AC50 in assay [3] is 4.15 µM (active).
Turning to `O=C(CCCCCN1C(=O)c2ccccc2C1=O)NCCc1nc2ccccc2[nH]1`, the IC50 in assay [1] was > 20 µM (inactive).
Usually EC50 stands for the concentration at which the effect is half-maximal. On to `CN(C)CC/C=C1\c2ccc(F)cc2Sc2cc(F)c(Cl)cc21`, for which the EC50 in assay [4] is > 120 µM (not active); in [5] it was 45.6 µM (active); in [6], 12.9 µM (active). In addition, the AC50 in assay [2] was 9.75 µM (active).
For `c1ccc(CN2CCN(c3nc(NCc4ccco4)c4ccccc4n3)CC2)cc1`, the CC50 in assay [7] is 24.4 µM (active). Moreover, the AC50 in assay [8] is 3.34 µM (active).
`COc1cc(C#Cc2c(-c3cncn3C)n(C)c3ccc(-c4ccc(OC)nc4)cc23)cc(OC)c1`: the AC50 in assay [8] was 4.95 µM (active); in assay [3], 5.5 µM (active); in assay [9], 20.5 µM (active); in assay [10], 21.2 µM (active).
Consider `COc1cnc(-c2ccccn2)nc1Oc1ccc(Cl)c2ccccc12`, for which the results for the EC50 (in assay [11]; at Streptokinase A; in the assay on Streptococcus) were 1.77 µM (active), > 150 µM (not active) and 20.1 µM (inconclusive), respectively. Further, on Large T antigen, the IC50 was 7.48 µM (active). The CC50 in [7] was 16.9 µM (active). Besides, the AC50 in the assay with INS1 was 4.86 µM (active).
Consider `Cc1ccc(C(=O)O)cc1NC(=S)NC(=O)c1ccc(COc2ccccc2)cc1`, for which the IC50 was 15.5 µM (active) in assay [12] and 6.25 µM (active) in [13].
Take `CN1CCN(CCCCOc2ccccc2C=O)CC1`: the AC50 in assay [2] was 15.8 µM (active).
As to `CCOC(=O)C(C)Sc1nc(-c2cccs2)ccc1C#N` (centres undefined), in [7], the CC50 was 38.9 µM (active).
Turning to `CCOC(=O)c1[n-]c2ccccc2c1[N+]#N`, the EC50 at Streptokinase A was > 150 µM (not active). Besides, the AC50 in [3] was 0.444 µM (active).
Take `CC(C)(C)CN1CCNC[C@H]1Cc1cccc2ccccc12`: in assay [1], the IC50 is > 20 µM (inactive).
With `O=C1C=CC(=O)N1c1ccc2ccccc2c1`, the AC50 in assay [3] was 0.832 µM (active).
In the case of `COc1cc(-c2cnc3c(NC=O)cc(-c4ccc(N5CCN(C)CC5)cc4)cn23)cc(OC)c1OC`, the AC50 in assay [2] was 4.54 µM (active).
For `COc1ccc2c3c(n(C)c2c1)[C@@H](CO)N(C(=O)Nc1ccc(F)cc1)CC31CCN(Cc2cccnc2)CC1`, the AC50 was 1.37 µM (active) in assay [14]; 31.7 µM (active) in assay [15]; 819 nM (active) in [16]; 727 nM (active) in [17]; 1.12 µM (active) in [18].
